Assay results taken from PubChem BioAssay (NCI).
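At the GI50, growth is halved. TGI: total growth inhibition.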

How the values were obtained:
Experiment in all cases: inhibition of tumour cell growth, NCI panel, 384-well format
[1] = tested on: 786-0 renal
[2] = tested on: A498 renal
[3] = tested on: A549 NSCLC
[4] = tested on: ACHN renal
[5] = tested on: BT-549 breast
[6] = tested on: CAKI-1 renal
[7] = tested on: CCRF-CEM leukemia
[8] = tested on: COLO 205 colon
[9] = tested on: DU-145 prostate
[10] = tested on: EKVX NSCLC
[11] = tested on: HCC-2998 colon
[12] = tested on: HCT-116 colon
[13] = tested on: HCT-15 colon
[14] = tested on: HL-60(TB) leukemia
[15] = tested on: HOP-62 NSCLC
[16] = tested on: HOP-92 NSCLC
[17] = tested on: HS 578T breast
[18] = tested on: HT29 colon
[19] = tested on: IGROV1 ovarian
[20] = tested on: K-562 leukemia
[21] = tested on: KM12 colon
[22] = tested on: LOX IMVI melanoma
[23] = tested on: M14 melanoma
[24] = tested on: MALME-3M melanoma
[25] = tested on: MCF7 breast
[26] = tested on: MDA-MB-231 breast
[27] = tested on: MDA-MB-435 melanoma
[28] = tested on: MDA-MB-468 breast
[29] = tested on: MOLT-4 leukemia
[30] = tested on: NCI-H226 lung
[31] = tested on: NCI-H23 lung
[32] = tested on: NCI-H322M lung
[33] = tested on: NCI-H460 NSCLC
[34] = tested on: NCI-H522 lung
[35] = tested on: NCI/ADR-RES ovarian
[36] = tested on: OVCAR-3 ovarian
[37] = tested on: OVCAR-4 ovarian
[38] = tested on: OVCAR-8 ovarian
[39] = tested on: PC-3 prostate
[40] = tested on: RPMI-8226 leukemia
[41] = tested on: RXF 393 renal
[42] = tested on: SF-268 CNS
[43] = tested on: SF-295 CNS
[44] = tested on: SF-539 CNS
[45] = tested on: SK-MEL-28 melanoma
[46] = tested on: SK-MEL-5 melanoma
[47] = tested on: SK-OV-3 ovarian
[48] = tested on: SN12C renal
[49] = tested on: SNB-19 CNS
[50] = tested on: SNB-75 CNS
[51] = tested on: SR leukemia
[52] = tested on: SW-620 colon
[53] = tested on: T-47D breast
[54] = tested on: TK-10 renal
[55] = tested on: U251 glioblastoma
[56] = tested on: UACC-257 melanoma
[57] = tested on: UACC-62 melanoma
[58] = tested on: UO-31 renal
[59] = tested on: OVCAR-5 ovarian

## C[C@H](Nc1ncnc2nc[nH]c12)c1cc2ccc(F)cc2nc1-c1ccccn1
[1]
  GI50: 30.4 µM
  TGI: > 100 µM
[2]
  GI50: 17.5 µM
  TGI: > 100 µM
[3]
  GI50: > 100 µM
  TGI: > 100 µM
[4]
  GI50: 96.1 µM
  TGI: > 100 µM
[5]
  GI50: 21.1 µM
  TGI: > 100 µM
[6]
  GI50: 8.35 µM
  TGI: 54.1 µM
[7]
  GI50: 11 µM
  TGI: > 100 µM
[8]
  GI50: > 100 µM
  TGI: > 100 µM
[9]
  GI50: > 100 µM
  TGI: > 100 µM
[10]
  GI50: 37.6 µM
  TGI: > 100 µM
[11]
  GI50: > 100 µM
  TGI: > 100 µM
[12]
  GI50: > 100 µM
  TGI: > 100 µM
[13]
  GI50: > 100 µM
  TGI: > 100 µM
[14]
  GI50: 3.53 µM
  TGI: 24.3 µM
[15]
  GI50: > 100 µM
  TGI: > 100 µM
[16]
  GI50: 12.7 µM
  TGI: > 100 µM
[17]
  GI50: 24.7 µM
  TGI: > 100 µM
[18]
  GI50: > 100 µM
  TGI: > 100 µM
[19]
  GI50: 21.2 µM
  TGI: 93.2 µM
[20]
  GI50: > 100 µM
  TGI: > 100 µM
[21]
  GI50: > 100 µM
  TGI: > 100 µM
[22]
  GI50: > 100 µM
  TGI: > 100 µM
[23]
  GI50: > 100 µM
  TGI: > 100 µM
[24]
  GI50: 23.6 µM
  TGI: > 100 µM
[25]
  GI50: 21 µM
  TGI: > 100 µM
[26]
  GI50: 53 µM
  TGI: > 100 µM
[27]
  GI50: > 100 µM
  TGI: > 100 µM
[28]
  GI50: 59.2 µM
  TGI: > 100 µM
[29]
  GI50: 23.3 µM
  TGI: > 100 µM
[30]
  GI50: 35.7 µM
  TGI: > 100 µM
[31]
  GI50: > 100 µM
  TGI: > 100 µM
[32]
  GI50: > 100 µM
  TGI: > 100 µM
[33]
  GI50: > 100 µM
  TGI: > 100 µM
[34]
  GI50: 67.4 µM
  TGI: > 100 µM
[35]
  GI50: > 100 µM
  TGI: > 100 µM
[36]
  GI50: 34.7 µM
  TGI: > 100 µM
[37]
  GI50: > 100 µM
  TGI: > 100 µM
[38]
  GI50: > 100 µM
  TGI: > 100 µM
[39]
  GI50: 18.2 µM
  TGI: > 100 µM
[40]
  GI50: 22.4 µM
  TGI: > 100 µM
[41]
  GI50: 12.6 µM
  TGI: > 100 µM
[42]
  GI50: > 100 µM
  TGI: > 100 µM
[43]
  GI50: 29.4 µM
  TGI: > 100 µM
[44]
  GI50: > 100 µM
  TGI: > 100 µM
[45]
  GI50: > 100 µM
  TGI: > 100 µM
[46]
  GI50: > 100 µM
  TGI: > 100 µM
[47]
  GI50: 64.3 µM
  TGI: > 100 µM
[48]
  GI50: 12.4 µM
  TGI: > 100 µM
[49]
  GI50: > 100 µM
  TGI: > 100 µM
[50]
  GI50: 24.3 µM
  TGI: > 100 µM
[51]
  GI50: 1.06 µM
  TGI: 8.99 µM
[52]
  GI50: > 100 µM
  TGI: > 100 µM
[53]
  GI50: 31.2 µM
  TGI: > 100 µM
[54]
  GI50: > 100 µM
  TGI: > 100 µM
[55]
  GI50: > 100 µM
  TGI: > 100 µM
[56]
  GI50: > 100 µM
  TGI: > 100 µM
[57]
  GI50: 29.2 µM
  TGI: > 100 µM
[58]
  GI50: 49.9 µM
  TGI: > 100 µM

## O=C1Nc2c(C(F)(F)F)cccc2[C@@]1(c1ccc(O)cc1)c1ccc(OC(F)(F)F)cc1
[1]
  GI50: 15.3 µM
  TGI: 28.7 µM
[2]
  GI50: 0.022 µM
  TGI: 0.0619 µM
[3]
  GI50: 0.0341 µM
  TGI: 0.148 µM
[4]
  GI50: 0.0203 µM
  TGI: 0.047 µM
[5]
  GI50: < 0.01 µM
  TGI: < 0.01 µM
[6]
  GI50: 12.9 µM
  TGI: 25.5 µM
[7]
  GI50: 12.8 µM
  TGI: 25.5 µM
[8]
  GI50: < 0.01 µM
  TGI: < 0.01 µM
[9]
  GI50: 0.0313 µM
  TGI: 0.102 µM
[10]
  GI50: 0.017 µM
  TGI: 0.0551 µM
[11]
  GI50: < 0.01 µM
  TGI: 0.0415 µM
[12]
  GI50: 0.0252 µM
  TGI: 16.9 µM
[13]
  GI50: 0.0186 µM
  TGI: 15.2 µM
[14]
  GI50: 2.14 µM
  TGI: 3.78 µM
[16]
  GI50: 0.0443 µM
  TGI: 20.6 µM
[17]
  GI50: < 0.01 µM
  TGI: < 0.01 µM
[18]
  GI50: 12.9 µM
  TGI: 25.7 µM
[20]
  GI50: 0.974 µM
  TGI: 17.7 µM
[21]
  GI50: 0.0145 µM
  TGI: 1.13 µM
[22]
  GI50: 0.0118 µM
  TGI: 0.0263 µM
[23]
  GI50: 3.36 µM
  TGI: 17.2 µM
[24]
  GI50: 8.37 µM
  TGI: 20.8 µM
[25]
  GI50: 0.0121 µM
  TGI: 0.0622 µM
[26]
  GI50: 3.86 µM
  TGI: 18.9 µM
[27]
  GI50: 8.62 µM
  TGI: 20.9 µM
[28]
  GI50: < 0.01 µM
  TGI: < 0.01 µM
[29]
  GI50: 10.4 µM
  TGI: 22.2 µM
[30]
  GI50: 0.0108 µM
  TGI: 0.0276 µM
[31]
  GI50: < 0.01 µM
  TGI: 0.0113 µM
[32]
  GI50: < 0.01 µM
  TGI: < 0.01 µM
[33]
  GI50: 13.7 µM
  TGI: 27.1 µM
[35]
  GI50: < 0.01 µM
  TGI: 0.0228 µM
[36]
  GI50: < 0.01 µM
  TGI: 0.017 µM
[37]
  GI50: < 0.01 µM
  TGI: < 0.01 µM
[59]
  GI50: 0.0503 µM
  TGI: 20.4 µM
[38]
  GI50: < 0.01 µM
  TGI: < 0.01 µM
[39]
  GI50: 0.0123 µM
  TGI: 0.0363 µM
[40]
  GI50: 3.03 µM
  TGI: 9.54 µM
[41]
  GI50: < 0.01 µM
  TGI: < 0.01 µM
[42]
  GI50: 2.01 µM
  TGI: 18.1 µM
[43]
  GI50: 0.0212 µM
  TGI: 0.0759 µM
[44]
  GI50: 1.6 µM
  TGI: 13.7 µM
[45]
  GI50: 12.4 µM
  TGI: 24.9 µM
[46]
  GI50: 10.9 µM
  TGI: 22.9 µM
[47]
  GI50: 0.0584 µM
  TGI: 13.8 µM
[48]
  GI50: < 0.01 µM
  TGI: 0.0211 µM
[49]
  GI50: 13.2 µM
  TGI: 26 µM
[50]
  GI50: < 0.01 µM
  TGI: < 0.01 µM
[51]
  GI50: 2.04 µM
  TGI: 4.15 µM
[52]
  GI50: 7.09 µM
  TGI: 19.4 µM
[53]
  GI50: < 0.01 µM
  TGI: < 0.01 µM
[54]
  GI50: < 0.01 µM
  TGI: < 0.01 µM
[55]
  GI50: 14.9 µM
  TGI: 28.2 µM
[56]
  GI50: 12 µM
  TGI: 24.4 µM
[57]
  GI50: 0.0331 µM
  TGI: 5.96 µM
[58]
  GI50: 0.0151 µM
  TGI: 0.0288 µM
